Measurements from US20260071117A1, “FUNABLE FLUORESCENT COMPOUNDS AND USES THEREOF” (Arizona Board of Regents on Behalf of the University of …, priority 2021, published 2026).
Values joined by “and” are separate entries in the source; they are usually repeats but may differ in a detail not shown here. Equal entries are not always repeated.

Assay: Absorbance and fluorescence measurements (excitation maximum, emission maximum, quantum yield vs coumarin 151)
Assay type: physicochemical
Design: key to Quantum Yield: fraction relative to coumarin 151 in ethanol standard
Conditions: for λex: absorbance/excitation maximum; for Quantum Yield: coumarin 151 in ethanol as standard; for λem: emission maximum
Source text: All reagents and solvents were acquired from commercially available suppliers and used without further purification. Methanol(dried on molecular sieves-Acroseal) was obtained from Acros. […] 1H and 13C NMR spectra were obtained on a Bruker NMR spectrometer at 500/400 and 125/100 MHz respectively. The data is reported as follows: chemical shift in ppm (δ), multiplicity (s=singlet, d=doublet, dd=doublet of doublets, t=triplet, dt=doublet of triplets, td=triplet of doublets, q=quartet, p=pentet, m=multiplet). Coupling constants are reported in Hertz (Hz) and were automatically generated using known NMR analyzer software (MestReNova), these were then subsequently curated. High-resolution mass spectra were obtained using the positive ESI method for all the compounds, obtained in an Ion Cyclotron Resonance (ICR) spectrometer. Absorbance spectra were obtained using an Agilent 8453 UV-visible spectroscopy system. Fluorescence was measured on a Varian (Agilent) Cary Eclipse Fluorimeter. Quantum yield measurements were calculated and reported using coumarin 151 in ethanol as a standard.^1 Fluorescence scans were obtained using a 2.5 mm slit width unless otherwise noted.
The fluorescence was also measured in different solvents to examine the solvent effects.

[1] = 2.5 mm slit width, measurements run with methanol

2-(3,4,5-trimethoxyphenyl)imidazo[1,2-a]pyridin-3-amine [Compound 10a]
λex (measurements run with methanol): 343 nm
Quantum Yield [1]: 0.36
λem [1]: 474 nm

Nc1c(-c2ccc3ccccc3c2)nc2cccnn12 [Compound 10ab, 2-(naphthalen-2-yl)imidazo[1,2-b]pyridazin-3-amine]
λex (measurements run with methanol): 438 nm
Quantum Yield [1]: 0.04
λem [1]: 543 nm

COc1ccc(-c2nc3cccnn3c2N)cc1 [Compound 10ac, 2-(4-methoxyphenyl)imidazo[1,2-b]pyridazin-3-amine]
λex (measurements run with methanol): 435 nm
Quantum Yield [1]: 0.03
λem [1]: 543 nm

COc1cc(-c2nc3cccnn3c2N)cc(OC)c1OC [Compound 10ad, 2-(3,4,5-trimethoxyphenyl)imidazo[1,2-b]pyridazin-3-amine]
λex (measurements run with methanol): 429 nm
Quantum Yield [1]: 0.03
λem [1]: 541 nm

COc1ccc(-c2nc3cccnn3c2N)c(OC)c1 [Compound 10ae, 2-(2,4-dimethoxyphenyl)imidazo[1,2-b]pyridazin-3-amine]
λex (measurements run with methanol): 433 nm
Quantum Yield [1]: 0.02
λem [1]: 555 nm

Nc1c(-c2ccc(N(c3ccccc3)c3ccccc3)cc2)nc2cccnn12 [Compound 10af, 2-(4-(diphenylamino)phenyl)imidazo[1,2-b]pyridazin-3-amine]
λex (measurements run with methanol): 438 nm
Quantum Yield [1]: 0.05
λem [1]: 544 nm

CCN(CC)c1ccc(-c2nc3cccnn3c2N)cc1 [Compound 10ag, 2-(4-(diethylamino)phenyl)imidazo[1,2-b]pyridazin-3-amine]
λex (measurements run with methanol): 444 nm
Quantum Yield [1]: 0.06
λem [1]: 572 nm

COC(=O)c1ccn2c(N)c(-c3ccccc3)nc2c1 [Compound 10ah, methyl 3-amino-2-phenylimidazo[1,2-a]pyridine-7-carboxylate]
λex (measurements run with methanol): 394 nm
Quantum Yield [1]: 0.40
λem [1]: 510 nm

COC(=O)c1ccn2c(N)c(-c3ccc4ccccc4c3)nc2c1 [Compound 10ai, methyl 3-amino-2-(naphthalen-2-yl)imidazo[1,2-a]pyridine-7-carboxylate]
λex (measurements run with methanol): 434 nm
Quantum Yield [1]: 0.47
λem [1]: 512 nm

COC(=O)c1ccn2c(N)c(-c3ccc(-c4ccccc4)cc3)nc2c1 [Compound 10aj, methyl 2-([1,1′-biphenyl]-4-yl)-3-aminoimidazo[1,2-a]pyridine-7-carboxylate]
λex (measurements run with methanol): 403 nm
Quantum Yield [1]: 0.45
λem [1]: 517 nm

COC(=O)c1ccn2c(N)c(-c3ccc(OC)cc3)nc2c1 [Compound 10ak, methyl 3-amino-2-(4-methoxyphenyl)imidazo[1,2-a]pyridine-7-carboxylate]
λex (measurements run with methanol): 394 nm
Quantum Yield [1]: 0.40
λem [1]: 510 nm

COC(=O)c1ccn2c(N)c(-c3cc(OC)c(OC)c(OC)c3)nc2c1 [Compound 10al, methyl 3-amino-2-(3,4,5-trimethoxyphenyl)imidazo[1,2-a]pyridine-7-carboxylate]
λex (measurements run with methanol): 399 nm
Quantum Yield [1]: 0.51
λem [1]: 512 nm

COC(=O)c1ccn2c(N)c(-c3ccc(OC)cc3OC)nc2c1 [Compound 10am, methyl 3-amino-2-(2,4-dimethoxyphenyl)imidazo[1,2-a]pyridine-7-carboxylate]
λex (measurements run with methanol): 402 nm
Quantum Yield [1]: 0.49
λem [1]: 519 nm

COC(=O)c1ccn2c(N)c(-c3ccc(N(c4ccccc4)c4ccccc4)cc3)nc2c1 [Compound 10an, methyl 3-amino-2-(4-(diphenylamino)phenyl)imidazo[1,2-a]pyridine-7-carboxylate]
λex (measurements run with methanol): 430 nm
Quantum Yield [1]: 0.44
λem [1]: 529 nm

CCN(CC)c1ccc(-c2nc3cc(C(=O)OC)ccn3c2N)cc1 [Compound 10ao, methyl 3-amino-2-(4-(diethylamino)phenyl)imidazo[1,2-a]pyridine-7-carboxylate]
λex (measurements run with methanol): 432 nm
Quantum Yield [1]: 0.25
λem [1]: 540 nm

CC(C)(C)Nc1c(-c2ccc(-c3nc4ccccn4c3NC(C)(C)C)cc2)nc2ccccn12 [Compound 10ap, 2,2′-(1,4-phenylene)bis(N-(tert-butyl)imidazo[1,2-a]pyridin-3-amine)]
λex (measurements run with methanol): 344 nm
Quantum Yield [1]: 0.30
λem [1]: 458 nm

COc1ccc(-c2nc3ccc(-c4ccccc4)cn3c2N)cc1 [Compound 10ar, 2-(4-methoxyphenyl)-6-phenylimidazo[1,2-a]pyridin-3-amine]
λex (measurements run with methanol): 350 nm
Quantum Yield [1]: 0.09
λem [1]: 510 nm

COc1ccc(-c2nc3ccc(N4CCCCC4)cn3c2N)cc1 [Compound 10as, 2-(4-methoxyphenyl)-6-(piperidin-1-yl)imidazo[1,2-a]pyridin-3-amine]
λex (measurements run with methanol): 341 nm
Quantum Yield [1]: 0.07
λem [1]: 479 nm

COc1ccc(-c2nc3cc(OC)ccn3c2N)cc1 [Compound 10at, 7-methoxy-2-(4-methoxyphenyl)imidazo[1,2-a]pyridin-3-amine]
λex (measurements run with methanol): 344 nm
Quantum Yield [1]: 0.10
λem [1]: 500 nm

COc1ccn2c(N)c(-c3ccc([N+](=O)[O-])cc3)nc2c1 [Compound 10au, 7-methoxy-2-(4-nitrophenyl)imidazo[1,2-a]pyridin-3-amine]
λex (measurements run with methanol): 360 nm

N#Cc1ccc(-c2nc3ccc(N4CCCCC4)cn3c2N)cc1 [Compound 10av, 4-(3-amino-6-(piperidin-1-yl)imidazo[1,2-a]pyridin-2-yl)benzonitrile]
λex (measurements run with methanol): 375 nm
Quantum Yield [1]: 0.03
λem [1]: 482 nm

Nc1c(-c2ccc([N+](=O)[O-])cc2)nc2ccc(N3CCCCC3)cn12 [Compound 10aw, 2-(4-nitrophenyl)-6-(piperidin-1-yl)imidazo[1,2-a]pyridin-3-amine]
λex (measurements run with methanol): 390 nm

COc1cc(-c2nc3cc(-c4ccncc4)ccn3c2N)cc(OC)c1OC [Compound 10ax, 7-(pyridin-4-yl)-2-(3,4,5-trimethoxyphenyl)imidazo[1,2-a]pyridin-3-amine]
λex (measurements run with methanol): 392 nm
Quantum Yield [1]: 0.23
λem [1]: 545 nm

CCN(CC)c1ccc(-c2nc3cc(-c4ccncc4)ccn3c2N)cc1 [Compound 10ay, 2-(4-(diethylamino)phenyl)-7-(pyridin-4-yl)imidazo[1,2-a]pyridin-3-amine]
λex (measurements run with methanol): 435 nm
Quantum Yield [1]: 0.06
λem [1]: 581 nm

COc1cc(-c2nc3cc([N+](=O)[O-])ccn3c2N)cc(OC)c1OC [Compound 10az, 7-nitro-2-(3,4,5-trimethoxyphenyl)imidazo[1,2-a]pyridin-3-amine]
Quantum Yield (10 mm slit): 0.11
λex (measurements run with methanol): 485 nm
λem (10 mm slit width): 651 nm

COc1cccc(-c2nc3ccccn3c2N)c1OC [Compound 10b, 2-(2,3-dimethoxyphenyl)imidazo[1,2-a]pyridin-3-amine]
λex (measurements run with methanol): 341 nm
Quantum Yield [1]: 0.40
λem [1]: 471 nm

CCN(CC)c1ccc(-c2nc3cc([N+](=O)[O-])ccn3c2N)cc1 [Compound 10ba, 2-(4-(diethylamino)phenyl)-7-nitroimidazo[1,2-a]pyridin-3-amine]
fluorescence (observation in words): fluorescence intensity is low
Quantum Yield (10 mm slit): 0.09
λex (measurements run with methanol): 550 nm
λem (10 mm slit width): 720 nm

COc1cc(-c2nc3ccccn3c2N)cc(OC)c1OC [Compound 10c, 2-(3,4,5-trimethoxyphenyl)imidazo[1,2-a]pyridin-3-amine]
λex (measurements run with methanol): 343 nm
Quantum Yield [1]: 0.38
λem [1]: 472 nm

COc1cc(OC)cc(-c2nc3ccccn3c2N)c1 [Compound 10d, 2-(3,5-dimethoxyphenyl)imidazo[1,2-a]pyridin-3-amine]
λex (measurements run with methanol): 344 nm
Quantum Yield [1]: 0.35
λem [1]: 473 nm and 478 nm

Nc1c(-c2ccc3ccccc3c2)nc2ccccn12 [Compound 10e, 2-(naphthalen-2-yl)imidazo[1,2-a]pyridin-3-amine]
λex (measurements run with methanol): 345 nm
Quantum Yield [1]: 0.28
λem [1]: 475 nm

Nc1c(-c2ccccc2)nc2ccccn12 [Compound 10f, 2-phenylimidazo[1,2-a]pyridin-3-amine]
λex (measurements run with methanol): 339 nm
Quantum Yield [1]: 0.30
λem [1]: 473 nm

COc1ccc(-c2nc3ccccn3c2N)cc1 [Compound 10g, 2-(4-methoxyphenyl)imidazo[1,2-a]pyridin-3-amine]
λex (measurements run with methanol): 340 nm
Quantum Yield [1]: 0.39
λem [1]: 472 nm

Nc1c(-c2ccccn2)nc2ccccn12 [Compound 10h, 2-(pyridin-2-yl)imidazo[1,2-a]pyridin-3-amine]
λex (measurements run with methanol): 370 nm

Nc1c(-c2ccccc2[N+](=O)[O-])nc2ccccn12 [Compound 10i, 2-(2-nitrophenyl)imidazo[1,2-a]pyridin-3-amine]
λex (measurements run with methanol): 330 nm

Nc1c(-c2cccc([N+](=O)[O-])c2)nc2ccccn12 [Compound 10j, 2-(3-nitrophenyl)imidazo[1,2-a]pyridin-3-amine]
λex (measurements run with methanol): 350 nm

Nc1c(-c2ccc([N+](=O)[O-])cc2)nc2ccccn12 [Compound 10k, 2-(4-nitrophenyl)imidazo[1,2-a]pyridin-3-amine]
fluorescence (observation in words): did not show any observable fluorescence intensity
λex (measurements run with methanol): 304 nm
